Data as given in patent US8202834B2, “Fat regulation” (FibroGen, Inc., priority 2002, dated 2012).

What was measured:
DEC1/Stra13 [1] = assay: DEC1/Stra13 expression in tissues after 4 days of oral dosing; assay type: in vivo, mouse; conditions: oral gavage once per day for 4 days, FIG. 3B
Procedure: (§1) To further investigate the effect of the methods and compounds of the present invention on expression of adipogenic factors, twelve Swiss Webster male mice (30-32 g) obtained from Simonsen, Inc. were treated by oral gavage once per day for 4 days with 4 ml/kg volume of either 0.5% CMC (0 mg/kg/day), 25 mg/ml compound D in 0.5% CMC (100 mg/kg/day), or 7.5 mg/ml and 25 mg/ml of compound B in 0.5% CMC (30 and 100 mg/kg/day, respectively). Four hours after the final dose, animals were anesthetized, sacrificed, and approximately 150 mg of adipose, heart, kidney, liver, lung, and muscle were isolated and stored in RNALATER solution (Ambion) at −20° C. RNA isolation and gene expression analysis was performed as described in Example 3 above.

DEC1/Stra13 [2] = assay: DEC1/Stra13 expression time course in liver after oral gavage; assay type: in vivo; conditions: mouse liver, 100 mg/kg oral gavage, 4-72 h; FIG. 3A
Procedure: (§2) The ability of the present compounds and methods to regulate fat metabolism, in particular, to increase expression of factors involved in fat transport, utilization, and storage, was analyzed as follows. To determine gene induction patterns over time, twenty four Swiss Webster male mice (30-32 g) were obtained from Simonsen, Inc. and treated by oral gavage with a 4 ml/kg volume of either 0.5% carboxymethyl cellulose (CMC; Sigma-Aldrich, St. Louis Mo.) (0 mg/kg) or […] compound B (25 mg/ml in 0.5% CMC) (100 mg/kg). At 4, 8, 16, 24, 48, or 72 hours after the final dose, animals were anesthetized with isoflurane. The mice were then sacrificed and tissue samples of kidney, liver, brain, lung, and heart were isolated and stored in RNALATER solution (Ambion) at −80° C.
To further investigate the effect of the methods and compounds of the present invention on expression of genes associated with fat metabolism and adipogenesis, the experiments performed as described in Example 3 above were analyzed for specific adipogenic factors. […] DEC1/Stra13 is known to repress expression of PPAR-γ2 nuclear hormone receptor, which is necessary for adipocyte differentiation. […]

HIF-1α = HIF-1α in nuclear fractions, TRANSAM HIF-1 ELISA; assay type: cell-based, human; conditions: 293A and Hep3B cells, vs vehicle; FIG. 8B
From the text: Compounds of the present invention for use in the present methods stabilize HIFα, inhibit HIF hydroxylase activity and/or HIFα hydroxylation, etc. Thus, compounds can be identified, e.g., by their ability to stabilize HIFα. Stabilization of HIFα using compounds and methods of the present invention was examined as follows. Human cells derived from adenovirus-transformed fetal kidney epithelium (293A), cervical epithelial adenocarcinoma (HeLa), hepatocellular carcinoma (Hep3B), squamous carcinoma (SSC-25), and lung fibroblast (HLF) tissues (see, e.g., American Type Culture Collection, Manassas Va.; and Qbiogene, Carlsbad Calif.) were separately seeded into 100 mm culture dishes and grown at 37° C., 20% O2, 5% CO2 in media as follows: HeLa cells in Dulbecco's Modification of Eagle's Medium (DMEM), 2% fetal bovine serum (FBS); HLF cells in DMEM, 10% FBS; 293A cells in DMEM, 5% FBS; and Hep3B cells in Minimal Essential Medium (MEM), Earle's BSS (Mediatech Inc., Herndon Va.), 2 mM L-glutamine, 0.1 mM non-essential amino acids, 1 mM sodium pyruvate, 10% FBS. When cell layers reached confluence, the media was replaced with OPTI-MEM media (Invitrogen Life Technologies, Carlsbad Calif.) and cell layers were incubated for approximately 24 hours in 20% O2, 5% CO2 at 37° C. A compound of the invention (compound B, D, F, G, or H) or vehicle control (0.5 to 1% DMSO) was then added to existing medium, and incubation was continued overnight.
Alternatively, nuclear fractions were prepared using a nuclear extract kit (Active Motif, Carlsbad Calif.) and were analyzed for HIF-1α using a TRANSAM HIF-1 ELISA kit (Active Motif) according to the manufacturer's instructions.

leptin = assay: Leptin secretion by preadipocytes in differentiation media; assay type: cell-based, human; conditions: 25 or 50 μM, up to 12 days, vs vehicle, FIG. 1B
Procedure: In a separate experiment, preadipocytes were plated in 24 well plates at 45,000 cells per well and cultured for 3 days in preadipocyte media (Zen-Bio). The media was then changed to differentiation media (Zen-Bio) and cells were treated with either vehicle control (0.5% DMSO) or compound B at 25 or 50 μM for up to 12 days. Half of the culture media was exchanged every 3 days and cell-free culture supernatants were generated and analyzed for levels of leptin secretion using a QUANTIKINE immunoassay (R&D Systems) according to the manufacturer's instructions.

[3] = system: PFK-P, PFK-L, enolase-1, GluT-1, lactate dehydrogenase-1, aldolase-1, hexokinase-1; assay: Expression of glucose regulation genes in kidney, liver and lung after oral gavage; assay type: in vivo; conditions: mouse kidney, liver, lung; 100 mg/kg oral gavage; FIGS. 10A-10C
Procedure: as §2
In the time course, most mRNA levels peaked early following administration of compound, then returned to control levels after 24 to 48 hours. […] These differences relate, in part, to the different degree to which glycolytic activity provides a critical source of energy for the respective tissue, especially during times of stress.

aldolase = assay: Aldolase expression in 293A cells, Western blot; assay type: cell-based, human
Procedure: In a further analysis of the methods and compounds effect on glucose regulation, human 293A cells were plated confluent in 35 mm culture dishes and cultured for 1 day at 37° C., 10% CO2 in DMEM containing 5% FBS and 1% penicillin-streptomycin. The media was changed to OPTI-MEM media (Invitrogen Life Technologies) and incubation was continued for an additional 18 to 24 hours. Vehicle control or compound B was then added to the media and cells were incubated for an additional 24, 48 or 72 hours. Plates were placed on ice, culture supernatant was removed, and lysis buffer-1 (LB-1: 10 mM Tris pH 7.4, 1 mM EDTA, 150 mM sodium chloride, 0.5% IGEPAL) was added. Cell lysates were harvested, cytosolic fractions were collected, and cytosolic proteins were separated using SDS-PAGE as described above. After separation, the proteins were transferred to a PVDF membrane at 400 mA for 1.5 hours at 4° C. The membrane was incubated in blocking buffer for 2 hours or overnight and washed once with T-TBS prior to addition of anti-aldolase antibody diluted to working concentration in blocking buffer. After overnight incubation with gentle agitation at 4° C., membranes were washed 4 times with T-TBS, followed by incubation for one hour at room temperature with conjugated secondary antibody diluted in blocking buffer. […]

PPAR-γ = PPAR-γ expression in tissue after 4 days of oral dosing; assay type: in vivo, mouse; conditions: cardiac tissue; oral gavage once per day for 4 days; FIG. 3C
Procedure: as §1

expression of genes encoding enzymes involved in glucose regulation [3]: increased in a coordinated fashion
Compound: O=C(O)CNC(=O)c1nc(Cl)c2ccccc2c1O [compound B, [(1-Chloro-4-hydroxy-isoquinoline-3-carbonyl)-amino]-acetic acid]
DEC1/Stra13 expression (DEC1/Stra13 [1]; adipose, kidney, liver and muscle, 4 h after final dose): increased DEC1/Stra13 expression
DEC1/Stra13 expression (DEC1/Stra13 [1]; lung and heart): increased DEC1/Stra13 expression
expression of DEC1/Stra13 (DEC1/Stra13 [2]): initially increased
stabilization and accumulation of HIFα (HIF-1α): stabilization and accumulation of HIFα
leptin secretion (leptin): dose-dependent increase in leptin secretion
aldolase expression (aldolase; 293A cells, 24, 48 and 72 hours, FIG. 9B): increased over time
β-tubulin expression (aldolase; 293A cells, specificity control): no increases
PPAR-γ expression (PPAR-γ): decreased PPAR-γ expression
